# According to ChEMBL document CHEMBL3421618, “2,6,9-Trisubstituted purines as CRK3 kinase inhibitors with antileishmanial activity in vitro” (Bioorg Med Chem Lett, 2015):
# Test system: not listed separately
# Assay: Leshmanicidal activity against promastigote stage of Leishmania turanica MRHO/MN/08/BZ18 after 72 hrs by alamar blue staining-based fluorescence assay
# Assay type: functional
# Conditions: not given
row,Compound,IC50
1,CC[C@H](CO)Nc1nc(NCc2cc(C)ccc2O)c2ncn(C(C)C)c2n1,11.8 µM
2,CC[C@H](CO)Nc1nc(NCc2cc(O)ccc2O)c2ncn(C(C)C)c2n1,> 50 µM
3,CC[C@H](CO)Nc1nc(NCc2cccc(O)c2O)c2ncn(C(C)C)c2n1,> 50 µM
4,CC[C@H](CO)Nc1nc(NCc2cccc(C)c2O)c2ncn(C(C)C)c2n1,23 µM
5,CC[C@H](CO)Nc1nc(NCc2ccccc2O)c2ncn(C(C)C)c2n1 [OLOMOUCINE II],11.9 µM
6,CC[C@H](CO)Nc1nc(NCc2cccc(OC)c2O)c2ncn(C(C)C)c2n1,35.4 µM
7,CC[C@H](CO)Nc1nc(Nc2ccc(S(=O)(=O)NC(=N)N)cc2)c2ncn(C(C)C)c2n1,> 50 µM
8,CC[C@H](CO)Nc1nc(NCc2ccc(Br)cc2)c2ncn(C(C)C)c2n1,20.1 µM
9,CC[C@H](CO)Nc1nc(Nc2ccc(S(N)(=O)=O)cc2)c2ncn(C(C)C)c2n1,> 50 µM

# Test system: Leishmania donovani
# Assay: Leshmanicidal activity against promastigote stage of Leishmania donovani MHOM/SD/1962/1S-c12d […] after 72 hrs by alamar blue staining-based fluorescence assay
# Assay type: functional, organism-based
# Conditions: not given
row,Compound,IC50
1,CC[C@H](CO)Nc1nc(NCc2cc(C)ccc2O)c2ncn(C(C)C)c2n1,2.2 µM
2,CC[C@H](CO)Nc1nc(NCc2cccc(C)c2O)c2ncn(C(C)C)c2n1,12.4 µM
3,CC[C@H](CO)Nc1nc(NCc2ccccc2O)c2ncn(C(C)C)c2n1 [OLOMOUCINE II],62.4 µM
4,CC[C@H](CO)Nc1nc(NCc2cccc(OC)c2O)c2ncn(C(C)C)c2n1,95.9 µM
5,CC[C@H](CO)Nc1nc(NCc2ccc(Br)cc2)c2ncn(C(C)C)c2n1,16.8 µM

# Test system: Leishmania
# Conditions: at 30 µM
# Description: Inhibition of Leishmania CRK3/CYC6 using histone H1/[gamma33-P]ATP as substrate at 30 uM after 30 mins relative to control
row,Compound,inhibition
1,CC(C)n1cnc2c(NCc3ccccc3O)nc(N3CCNCC3)nc21,55.6%
2,CC[C@H](CO)Nc1nc(NC(CO)c2ccccc2)c2ncn(C(C)C)c2n1 (stereo not given in full),33.5%
3,CC(C)n1cnc2c(NCc3ccccc3)nc(NCCO)nc21,66.6%
4,CC[C@H](CO)Nc1nc(NCc2cc(C)ccc2O)c2ncn(C(C)C)c2n1,0.4%
5,CC[C@H](CO)Nc1nc(NCc2cc(O)ccc2O)c2ncn(C(C)C)c2n1,1.5%
6,CC(C)n1cnc2c(NCc3ccccc3)nc(N(CCO)CCO)nc21,47.1%
7,CC[C@H](CO)Nc1nc(NCc2ccc(OC)cc2O)c2ncn(C(C)C)c2n1,53.1%
8,CC(C)n1cnc2c(NCc3ccccc3)nc(NCCN)nc21,57.5%
9,CC(C)n1cnc2c(NCc3cccc(O)c3)nc(NCCCO)nc21,64.6%
10,CC[C@H](CO)Nc1nc(NCc2cc(OC)c(O)c(OC)c2)c2ncn(C(C)C)c2n1,8.3%
11,CC(C)n1cnc2c(NCc3ccc(O)cc3)nc(NCCCO)nc21,53.3%
12,CC(C)n1cnc2c(NCc3ccccc3O)nc(N[C@@H]3CCCC[C@H]3N)nc21,29.4%
13,COc1cccc(CNc2nc(N[C@H]3CC[C@H](N)CC3)nc3c2ncn3C(C)C)c1O,10.8%
14,CC[C@H](CO)Nc1nc(NCc2ccc(O)cc2)c2ncn(C(C)C)c2n1,21.3%
15,CC(C)n1cnc2c(NCc3ccccc3)nc(NC[C@H](C)O)nc21,53.9%
16,CCOC(=O)c1ccc(Nc2nc(N[C@H](CC)CO)nc3c2ncn3C(C)C)cc1,5.6%
17,CC[C@H](CO)Nc1nc(NCc2cc(O)cc(O)c2)c2ncn(C(C)C)c2n1,15.9%
18,CC(C)n1cnc2c(NCc3ccccc3O)nc(N3CCN(CC#N)CC3)nc21,71.7%
19,CC(C)n1cnc2c(NCc3ccccc3)nc(NCCOCCO)nc21,56.5%
20,CC(C)n1cnc2c(NCc3ccccc3O)nc(NCCCO)nc21,10.5%

row,Compound,inhibition
1,CC[C@H](CO)Nc1nc(NCc2cccc(O)c2O)c2ncn(C(C)C)c2n1,2.6%
2,CC(C)n1cnc2c(NCc3ccccc3O)nc(N[C@H]3CC[C@H](N)CC3)nc21,12.2%
3,CC(C)n1cnc2c(NCc3ccccc3)nc(N)nc21,87.1%
4,CC[C@H](CO)Nc1nc(NCc2cccc(O)c2)c2ncn(C(C)C)c2n1,36.4%
5,CC(C)n1cnc2c(NCc3ccccc3O)nc(NCc3ccccc3O)nc21,37.8%
6,CC(C)n1cnc2c(NCc3ccccc3)nc(NC[C@H](O)CN)nc21,43.2%
7,CC(C)n1cnc2c(NCc3ccccc3)nc(NCCCO)nc21 [BOHEMINE],49.2%
8,CC[C@H](CO)Nc1nc(NCc2ccccc2N)c2ncn(C(C)C)c2n1,9.8%
9,CC[C@H](CO)Nc1nc(NCc2cccc(C)c2O)c2ncn(C(C)C)c2n1,3.3%
10,CC[C@H](CO)Nc1nc(NCc2ccccc2)c2ncn(C(C)C)c2n1 [SELICICLIB],38.6%
11,CC[C@H](CO)Nc1nc(NCc2ccccc2O)c2ncn(C(C)C)c2n1 [OLOMOUCINE II],1.8%
12,CC[C@H](CO)Nc1nc(Nc2ccc(S(=O)(=O)Nc3nc(C)cc(C)n3)cc2)c2ncn(C(C)C)c2n1,1.2%
13,CC[C@H](CO)Nc1nc(NCc2cccc(OC)c2O)c2ncn(C(C)C)c2n1,2%
14,CC(C)n1cnc2c(NCc3ccccc3)nc(NCCCN)nc21,46.2%
15,CC[C@H](CO)Nc1nc(Nc2ccc(S(=O)(=O)NC(=N)N)cc2)c2ncn(C(C)C)c2n1,0.3%
16,CC[C@H](CO)Nc1nc(NCc2ccc(Br)cc2)c2ncn(C(C)C)c2n1,10%
17,CC[C@H](CO)Nc1nc(Nc2ccc(S(N)(=O)=O)cc2)c2ncn(C(C)C)c2n1,2.2%
18,CC(C)n1cnc2c(NCc3ccccc3)nc(NCCCCCC#N)nc21,49%
19,COc1cccc(CNc2nc(N[C@@H]3CCCC[C@H]3N)nc3c2ncn3C(C)C)c1O,33.6%

# Test system: not listed separately
# Assay: Inhibition of Leishmania CRK3/CYC6 using histone H1/[gamma33-P]ATP as substrate after 30 mins
# Conditions: not given
row,Compound,IC50
1,CC[C@H](CO)Nc1nc(NCc2cc(C)ccc2O)c2ncn(C(C)C)c2n1,0.162 µM
2,CC[C@H](CO)Nc1nc(NCc2cc(O)ccc2O)c2ncn(C(C)C)c2n1,0.384 µM
3,CC[C@H](CO)Nc1nc(NCc2cccc(O)c2O)c2ncn(C(C)C)c2n1,0.314 µM
4,CC[C@H](CO)Nc1nc(NCc2cccc(C)c2O)c2ncn(C(C)C)c2n1,1.65 µM
5,CC[C@H](CO)Nc1nc(NCc2ccccc2O)c2ncn(C(C)C)c2n1 [OLOMOUCINE II],0.59 µM
6,CC[C@H](CO)Nc1nc(NCc2cccc(OC)c2O)c2ncn(C(C)C)c2n1,0.641 µM
7,CC[C@H](CO)Nc1nc(Nc2ccc(S(=O)(=O)NC(=N)N)cc2)c2ncn(C(C)C)c2n1,0.115 µM
8,CC[C@H](CO)Nc1nc(Nc2ccc(S(N)(=O)=O)cc2)c2ncn(C(C)C)c2n1,0.214 µM

# Test system: not listed separately
# Assay: Cytotoxicity against human BJ cells assessed as cell viability at 30 uM after 72 hrs by fluorescence assay relative to control
# Conditions: BJ cells
row,Compound,"viability at 72 h, 30 µM"
1,CC(C)n1cnc2c(NCc3ccccc3O)nc(N3CCNCC3)nc21,127%
2,CC[C@H](CO)Nc1nc(NC(CO)c2ccccc2)c2ncn(C(C)C)c2n1 (stereo not given in full),102%
3,CC(C)n1cnc2c(NCc3ccccc3)nc(NCCO)nc21,74.2%
4,CC[C@H](CO)Nc1nc(NCc2cc(C)ccc2O)c2ncn(C(C)C)c2n1,70.4%
5,CC[C@H](CO)Nc1nc(NCc2cc(O)ccc2O)c2ncn(C(C)C)c2n1,97.7%
6,CC(C)n1cnc2c(NCc3ccccc3)nc(N(CCO)CCO)nc21,133%
7,CC[C@H](CO)Nc1nc(NCc2ccc(OC)cc2O)c2ncn(C(C)C)c2n1,82.3%
8,CC(C)n1cnc2c(NCc3ccccc3)nc(NCCN)nc21,95.2%
9,CC(C)n1cnc2c(NCc3cccc(O)c3)nc(NCCCO)nc21,74.6%
10,CC[C@H](CO)Nc1nc(NCc2cc(OC)c(O)c(OC)c2)c2ncn(C(C)C)c2n1,103%
11,CC(C)n1cnc2c(NCc3ccc(O)cc3)nc(NCCCO)nc21,84.9%
12,CC(C)n1cnc2c(NCc3ccccc3O)nc(N[C@@H]3CCCC[C@H]3N)nc21,98.7%
13,COc1cccc(CNc2nc(N[C@H]3CC[C@H](N)CC3)nc3c2ncn3C(C)C)c1O,87.9%
14,CC[C@H](CO)Nc1nc(NCc2ccc(O)cc2)c2ncn(C(C)C)c2n1,91.6%
15,CC(C)n1cnc2c(NCc3ccccc3)nc(NC[C@H](C)O)nc21,94.7%
16,CCOC(=O)c1ccc(Nc2nc(N[C@H](CC)CO)nc3c2ncn3C(C)C)cc1,70.1%
17,CC[C@H](CO)Nc1nc(NCc2cc(O)cc(O)c2)c2ncn(C(C)C)c2n1,83.9%
18,CC(C)n1cnc2c(NCc3ccccc3O)nc(N3CCN(CC#N)CC3)nc21,91.8%
19,CC(C)n1cnc2c(NCc3ccccc3)nc(NCCOCCO)nc21,69.9%

row,Compound,"viability at 72 h, 30 µM"
1,CC(C)n1cnc2c(NCc3ccccc3O)nc(NCCCO)nc21,85%
2,CC[C@H](CO)Nc1nc(NCc2cccc(O)c2O)c2ncn(C(C)C)c2n1,80.1%
3,CC(C)n1cnc2c(NCc3ccccc3O)nc(N[C@H]3CC[C@H](N)CC3)nc21,90.4%
4,CC(C)n1cnc2c(NCc3ccccc3)nc(N)nc21,72.2%
5,CC[C@H](CO)Nc1nc(NCc2cccc(O)c2)c2ncn(C(C)C)c2n1,85.6%
6,CC(C)n1cnc2c(NCc3ccccc3O)nc(NCc3ccccc3O)nc21,97.5%
7,CC(C)n1cnc2c(NCc3ccccc3)nc(NC[C@H](O)CN)nc21,74.5%
8,CC[C@H](CO)Nc1nc(NCc2ccccc2N)c2ncn(C(C)C)c2n1,95.7%
9,CC[C@H](CO)Nc1nc(NCc2cccc(C)c2O)c2ncn(C(C)C)c2n1,82.9%
10,CC[C@H](CO)Nc1nc(NCc2ccccc2)c2ncn(C(C)C)c2n1 [SELICICLIB],106%
11,CC[C@H](CO)Nc1nc(NCc2ccccc2O)c2ncn(C(C)C)c2n1 [OLOMOUCINE II],79.8%
12,CC[C@H](CO)Nc1nc(Nc2ccc(S(=O)(=O)Nc3nc(C)cc(C)n3)cc2)c2ncn(C(C)C)c2n1,105%
13,CC[C@H](CO)Nc1nc(NCc2cccc(OC)c2O)c2ncn(C(C)C)c2n1,89%
14,CC(C)n1cnc2c(NCc3ccccc3)nc(NCCCN)nc21,100%
15,CC[C@H](CO)Nc1nc(Nc2ccc(S(=O)(=O)NC(=N)N)cc2)c2ncn(C(C)C)c2n1,84.4%
16,CC[C@H](CO)Nc1nc(NCc2ccc(Br)cc2)c2ncn(C(C)C)c2n1,92.3%
17,CC[C@H](CO)Nc1nc(Nc2ccc(S(N)(=O)=O)cc2)c2ncn(C(C)C)c2n1,76.7%
18,CC(C)n1cnc2c(NCc3ccccc3)nc(NCCCCCC#N)nc21,77.8%
19,COc1cccc(CNc2nc(N[C@@H]3CCCC[C@H]3N)nc3c2ncn3C(C)C)c1O,87.4%

# Same assay, conditions: bj
row,Compound,"viability at 72 h, 30 µM"
1,CC(C)n1cnc2c(NCc3ccccc3)nc(NCCCO)nc21 [BOHEMINE],120%

# Test system: Leishmania major
# Assay: Leshmanicidal activity against promastigote stage of Leishmania major MHOM/IL/2003/LRC-L1025 […] after 72 hrs by alamar blue staining-based fluorescence assay
# Assay type: functional, organism-based
# Conditions: MHOM/IL/2003/LRC-L1025, 72 h
row,Compound,IC50
1,CC[C@H](CO)Nc1nc(NCc2cc(C)ccc2O)c2ncn(C(C)C)c2n1,2.3 µM
2,CC[C@H](CO)Nc1nc(NCc2cccc(C)c2O)c2ncn(C(C)C)c2n1,19.8 µM
3,CC[C@H](CO)Nc1nc(NCc2ccccc2O)c2ncn(C(C)C)c2n1 [OLOMOUCINE II],47.2 µM
4,CC[C@H](CO)Nc1nc(NCc2cccc(OC)c2O)c2ncn(C(C)C)c2n1,98.5 µM
5,CC[C@H](CO)Nc1nc(NCc2ccc(Br)cc2)c2ncn(C(C)C)c2n1,19.4 µM
